Assay results published in patent US7691842B2, “Tricyclic 6-alkylidene-penems as β-lactamase inhibitors” (Wyeth LLC, priority 2002, dated 2010).
Counter-ions that a name gives are not always drawn. Like-named read-outs stand apart in the source and are kept apart here.

Columns and labels:
[1] = target: class A β-lactamase TEM-1 (Escherichia coli, UniProt P62593); experiment: β-Lactamase inhibition, IC50 determination (nitrocefin, spectrophotometric); format: biochemical, E. Coli
Method: (§1) IC50 Determination for the Penem Inhibitor
(§2) β-Lactamase inhibitory activity of the penem inhibitors was determined spectrophotometrically as described by Bush et al., [Bush, K., Macalintal, C., Rasmussen, B. A., Lee, V. and Yang, Y. Antimicrobial Agents and Chemotherapy 1993, 37, 851]. Homogeneously purified class A β-lactamases TEM-1 from E. Coli and Imi-1 from Enterobacter cloacae, class B enzyme CcrA from Bacteroides fragilis and class C enzyme AmpC from Enterobacter cloaca were employed in the assay. The enzyme concentrations for TEM-1, Imi-1, CcrA and AmpC were 4.3, 7.1, 1.2 and 2.1 nM, respectively. A wide range of inhibitor concentrations were prepared in 50 mM PO4, pH 7.0 to include the possible IC50 values. The substrate used to initiate the enzyme reaction was nitrocefin at 50 μg/ml in the same buffer as the inhibitor. Initially the enzyme and inhibitor (20 μl each) were preincubated for 10 minutes at 25° C. prior to the addition of 160 μl volume of nitrocefin. Initial rates of hydrolysis were monitored for 5 minutes at 495 nm using a Molecular Devices Spectra Max 250 with kinetic protocol of SoftMax Program. Readings from the Spectra Max 250 were exported and transferred to Microsoft Excel. The percent of inhibition of each inhibitor concentration was calculated based on the control enzyme activity. The inhibitor concentration that caused a 50% reduction in the enzymatic activity (IC50) was determined graphically.

[2] = target: class A β-lactamase Imi-1 (Enterobacter cloacae, UniProt Q46991); experiment: as above; format: biochemical
Sequence of class A β-lactamase Imi-1 (Q46991 entry or part of it): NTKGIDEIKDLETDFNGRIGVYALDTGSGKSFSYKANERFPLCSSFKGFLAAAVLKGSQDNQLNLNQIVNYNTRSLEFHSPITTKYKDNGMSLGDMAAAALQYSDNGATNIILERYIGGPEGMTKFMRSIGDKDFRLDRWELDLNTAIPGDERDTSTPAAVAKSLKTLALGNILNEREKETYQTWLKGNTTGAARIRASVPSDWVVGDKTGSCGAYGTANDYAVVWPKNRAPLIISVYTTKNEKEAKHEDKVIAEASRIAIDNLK
Method: as §1, §2

[3] = target: class B enzyme CcrA (Bacteroides fragilis, UniProt P25910); experiment: as above; format: biochemical; conditions: enzyme 1.2 nM; 10 min preincubation at 25° C.; nitrocefin 50 μg/ml; 50 mM PO4, pH 7.0; read-out: IC50 (nM) Class B Ccr
Sequence of class B enzyme CcrA (P25910 19-249): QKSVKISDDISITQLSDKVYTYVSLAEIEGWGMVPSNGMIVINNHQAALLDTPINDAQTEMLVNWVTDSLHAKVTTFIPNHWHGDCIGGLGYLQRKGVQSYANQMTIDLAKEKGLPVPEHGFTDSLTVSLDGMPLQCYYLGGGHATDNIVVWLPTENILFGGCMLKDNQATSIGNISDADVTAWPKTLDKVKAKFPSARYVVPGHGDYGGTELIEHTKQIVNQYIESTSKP
Method: as §1, §2

[4] = target: class C enzyme AmpC (Enterobacter cloacae, UniProt P05364); experiment: biochemical; parameters: species or system Enterobacter cloaca
Sequence of class C enzyme AmpC (P05364 21-381): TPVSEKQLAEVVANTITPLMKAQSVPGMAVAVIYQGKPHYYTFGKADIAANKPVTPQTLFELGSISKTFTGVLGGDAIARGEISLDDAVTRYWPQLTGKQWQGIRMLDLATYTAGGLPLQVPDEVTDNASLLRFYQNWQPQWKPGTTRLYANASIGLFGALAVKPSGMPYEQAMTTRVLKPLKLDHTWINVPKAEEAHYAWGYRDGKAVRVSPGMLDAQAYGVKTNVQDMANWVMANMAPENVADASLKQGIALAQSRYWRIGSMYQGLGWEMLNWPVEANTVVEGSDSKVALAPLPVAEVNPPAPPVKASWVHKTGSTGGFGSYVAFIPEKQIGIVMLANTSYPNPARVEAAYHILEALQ
Method: as §1, §2

[5] = system: E. Cloacae GC1477 (Ampc); experiment: Antimicrobial susceptibility testing, microbroth dilution MIC of piperacillin + inhibitor; format: cell-based; conditions: piperacillin combined with constant 4 μg/ml inhibitor; Inc: 35° C. for 18 hours
Method: (§3) Antimicrobial susceptibility testing. The in vitro activities of the antibiotics were determined by the microbroth dilution method as recommended by the National Committee for Clinical Laboratory Standards (NCCLS). (NCCLS. 2000. Methods for Dilution Antimicrobial Susceptibility Tests for Bacteria That Grow Aerobically; Approved Standards: M7-A5, vol. 19. National Committee for Clinical Laboratory Standards, Villanova, Pa.). Mueller-Hinton it broth (MHBII)(BBL Cockeysville, Md.), was used for the testing procedure. Microtiter plates containing 50 μl per well of two-fold serial dilutions of piperacillin combined with a constant amount (4 μg/ml) of a B-lactamase inhibitor (final concentration) were inoculated with 50 μl of inoculum to yield the appropriate density (10^5 CFU/ml) in 100 μl. The plates were incubated for 18-22 hours at 35° C. in ambient air.

[6] = system: E. Coli GC2203; experiment: as above; format: cell-based; conditions: piperacillin combined with constant 4 μg/ml inhibitor; Inc: 35° C. for 18 hours
Method: as §3

[7] = system: E. Coli GC2844; experiment: as above; format: cell-based; conditions: piperacillin combined with constant 4 μg/ml inhibitor; Inc: 35° C. for 18 hours
Method: as §3

[8] = system: E. Coli GC2847 (TEM-1); experiment: as above; format: cell-based; conditions: piperacillin combined with constant 4 μg/ml inhibitor; Inc: 35° C. for 18 hours
Method: as §3

[9] = system: E. Coli GC2894 (Ampc); experiment: as above; format: cell-based; conditions: piperacillin combined with constant 4 μg/ml inhibitor; Inc: 35° C. for 18 hours
Method: as §3

[10] = system: E. Coli GC2920 (IRT-2); experiment: as above; format: cell-based; conditions: piperacillin combined with constant 4 μg/ml inhibitor; Inc: 35° C. for 18 hours
Method: as §3

[11] = system: P. aeruginos GC1764 (Ampc); experiment: as above; format: cell-based; conditions: piperacillin combined with constant 4 μg/ml inhibitor; Inc: 35° C. for 18 hours
Method: as §3

[12] = system: S. Marcescens GC1781 Sme-1 + Ampc; experiment: as above; format: cell-based; conditions: piperacillin combined with constant 4 μg/ml inhibitor; Inc: 35° C. for 18 hours
Method: as §3

[13] = enzyme 4.3 nM, 10 min preincubation at 25° C., nitrocefin 50 μg/ml, 50 mM PO4, pH 7.0, read-out: IC50 (nM) Class A TEM-1
[14] = enzyme 7.1 nM, 10 min preincubation at 25° C., nitrocefin 50 μg/ml, 50 mM PO4, pH 7.0, read-out: IC50 (nM) Class A Imi
[15] = enzyme 2.1 nM, 10 min preincubation at 25° C., nitrocefin 50 μg/ml, 50 mM PO4, pH 7.0, read-out: IC50 (nM) Class C AmpC

Sequence of class A β-lactamase TEM-1 (P62593 24-286 limits assumed): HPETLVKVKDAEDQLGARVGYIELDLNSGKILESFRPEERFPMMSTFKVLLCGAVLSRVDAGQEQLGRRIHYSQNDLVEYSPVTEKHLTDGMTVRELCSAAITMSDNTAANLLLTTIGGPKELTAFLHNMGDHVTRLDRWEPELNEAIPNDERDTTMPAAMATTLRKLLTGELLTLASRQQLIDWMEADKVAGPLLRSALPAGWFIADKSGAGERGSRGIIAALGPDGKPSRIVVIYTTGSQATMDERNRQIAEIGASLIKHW

Row | SMILES | IC50 [1] | IC50 [2] | IC50 [3] | IC50 [4] | Minimal Inhibitory Concentration E. Cloacae GC1477 (Ampc) [5] | Minimal Inhibitory Concentration E. Coli GC2203 [6] | Minimal Inhibitory Concentration E. Coli GC2844 [7] | Minimal Inhibitory Concentration E. Coli GC2847 (TEM-1) [8] | Minimal Inhibitory Concentration E. Coli GC2894 (Ampc) [9] | Minimal Inhibitory Concentration E. Coli GC2920 (IRT-2) [10] | Minimal Inhibitory Concentration P. aeruginos GC1764 (Ampc) [11] | Minimal Inhibitory Concentration S. Marcescens GC1781 Sme-1 + Ampc [12] | IC50 [1, 13] | IC50 [2, 14] | IC50 [4, 15]
1 | O=C(O)C1=CS[C@@H]2/C(=C\c3cn4c(cnc5ccccc54)n3)C(=O)N12 [Example 6, (5R),(6Z)-6-(Imidazo[1,2-a]quinoxaline-2-ylmethylene)-7-oxo-4-thia-1-azabicyclo[3.2.0]hepto-2-ene-2-carboxylic acid, sodium salt] | 2.5 nM | 210 nM | 350 nM | 1.2 nM | – | – | – | – | – | – | – | – | – | – | –
2 | O=C(O)C1=CS[C@@H]2/C(=C/c3ccc4c(c3)N(Cc3ccccc3)C(=O)c3ccccc3O4)C(=O)N12 [Example 9, (5R,6E)-6-[(10-benzyl-ii-oxo-10,11-dihydrodibenzo[b,f][1,4]oxazepin-8-yl)methylene]-7-oxo-4-thia-1-azabicyclo[3.2.0]hept-2-ene-2-carboxylic Acid] | 3.5 nM | 3600 nM | 220 nM | 4.5 nM | – | – | – | – | – | – | – | – | – | – | –
3 | Cc1cccc2sc3nc(/C=C4/C(=O)N5C(C(=O)O)=CS[C@H]45)cn3c12 [Example 13] | 8.7 nM | 102 nM | 228 nM | 1.6 nM | – | – | – | – | – | – | – | – | – | – | –
4 | O=C(O)C1=CS[C@@H]2/C(=C\c3cn4c(nc5ccccc54)s3)C(=O)N12 [Example 17, (5R),(6Z)-7-oxo-6-([1,3]thiazolo[3,2-a]benzimidazol-2-ylmethylene)-4-thia-1-azabicyclo[3.2.0]hept-2-ene-2-carboxylic acid] | – | – | – | – | >64 µg/mL | 2 µg/mL | 2 µg/mL | 64 µg/mL | >64 µg/mL | 4 µg/mL | 32 µg/mL | 8 µg/mL | – | – | –
5 | O=C(O)C1=CS[C@@H]2/C(=C\c3cn4nc5c(c4s3)CCC5)C(=O)N12 [Example 18, (5R),(6Z)-6-(7,8-dihydro-6H-cyclopenta[3,4]pyrazolo[5,1-b][1,3]thiazol-2-ylmethylene)-7-oxo-64-thia-1-azabicyclo[3.2.0]hept-2-ene-2-carboxylic acid] | – | – | – | – | >64 µg/mL | 4 µg/mL | 2 µg/mL | >64 µg/mL | >64 µg/mL | 4 µg/mL | 64 µg/mL | 4 µg/mL | – | – | –
6 | Cn1c2ccccc2n2cc(/C=C3/C(=O)N4C(C(=O)O)=CS[C@H]34)nc12 [Example 20, (5R),(6Z)-8-[(9-methyl-9H-imidazo[1,2-a]benzimidazol-2-yl)methylene]-7-oxo-4-thia-1-azabicyclo[3.2.0]hept-2-ene-2-carboxylic acid] | – | – | – | – | >64 µg/mL | 2 µg/mL | 4 µg/mL | >64 µg/mL | 32 µg/mL | 4 µg/mL | 32 µg/mL | 2 µg/mL | – | – | –
7 | O=C([O-])C1=CS[C@@H]2/C(=C\c3cc4c(s3)-c3cccnc3SC4)C(=O)N12.[Na+] [Example 21, (5R,6Z)-7-oxo-6-(4H-thieno[2′,3′:45]thiopyrano[2,3-b]pyridin-2-ylmethylene)-4-thia-1-azabicyclo[3.2.0]hept-2-ene-2-carboxylic acid (Sodium salt)] | – | – | 210 nM | – | >64 µg/mL | 2 µg/mL | 2 µg/mL | >64 µg/mL | 32 µg/mL | 4 µg/mL | 64 µg/mL | 2 µg/mL | 11 nM | 580 nM | 3.7 nM
8 | COc1nc2nc(/C=C3/C(=O)N4C(C(=O)O)=CS[C@H]34)cn2c2c1CCC2 [Example 26, (5R,6Z)-6-[(5-methoxy-7,8-dihydro-6H-cyclopenta[e]imidazo[1,2-a]pyrimidin-2-yl)methylene]-7-oxo-4-thia-1-azabicyclo[3.2.0]hept-2-ene-2-carboxylic acid, sodium salt] | 48 nM | 63 nM | 420 nM | 10 nM | – | – | – | – | – | – | – | – | – | – | –
9 | O=C(O)C1=CS[C@@H]2/C(=C\c3cc4oc5c(n4n3)CCOC5)C(=O)N12 [Example 31, (5R,6Z)-6-(7,8-dihydro-5H-pyrano[4,3-d]pyrazolo[5,1-b][1,3]oxazol-2-ylmethylene)-7-oxo-4-thia-1-azabicyclo[3.2.0]hept-2-ene-2-carboxylic acid, sodium salt] | 4.3 nM | 140 nM | 130 nM | 4 nM | – | – | – | – | – | – | – | – | – | – | –
10 | CCOC(=O)N1CCc2c(oc3cc(/C=C4/C(=O)N5C(C(=O)[O-])=CS[C@H]45)nn23)C1.[Na+] [Example 33, (5R,6Z)-6-{[6-(ethoxycarbonyl)-5,6,7,8-tetrahydropyrazolo[5′,1′:2,3][1,3]oxazolo[5,4-c]pyridin-2-yl]methylene}-7-oxo-4-thia-1-1-azabicyclo[3.2.0]hept-2-ene-2-carboxylic acid, sodium salt] | – | – | 160 nM | – | >64 µg/mL | 2 µg/mL | 2 µg/mL | 64 µg/mL | 64 µg/mL | 4 µg/mL | >64 µg/mL | 2 µg/mL | 10 nM | 360 nM | 140 nM
